Broadly, the inhibition is the share of the control response that was lost under treatment. Usually IC50 stands for the point on the concentration scale where inhibition reaches its midpoint. One may read the logP as the decadic logarithm of the partition coefficient of the neutral form, usually between octanol and water.

Each structure is given as a SMILES string. Like-named read-outs stand apart in the source and are kept apart here.

The values below come from article PMC12068008 (International Journal of Molecular Sciences, 2024).

In series [1] the target is eeAChE (Electrophorus electricus, UniProt O42275). In words: biochemical. The following applies: read-out: Percentage Inhibition AChE. As for the experimental part: The abilities of compounds to inhibit AChE and BuChE activity were determined following Ellman’s procedure, with AChI and BuChI as the enzyme substrate, respectively, and DTNB as a chromogenic reagent. AChE’s and BuChE’s working solutions were prepared at 20 mM TRIS and deionized water, respectively. AChI and BuChI solutions were prepared in deionized water. […] Stock solutions (10 mM) of investigated compounds were prepared daily by dissolving solid compounds in DMSO. The reaction mixture containing phosphate buffer, DTNB, enzyme, and compound was preincubated 30 min at 37 °C. After the preincubation time, the enzyme reaction was initiated by adding appropriate substrate and left to incubate for 6 min. After incubation, 0.1 M SDS was added to stop the reaction. […] A blank assay, containing all components except the enzyme, was used to account for non-enzyme reactions. The control solution contained all components except the inhibitor. All experiments were conducted in triplicate, and the results are expressed as the mean percentage enzyme activity compared to the control value. IC50 values were determined graphically using Origin 9 Microsoft Windows.
Sequence of eeAChE (O42275 24-633): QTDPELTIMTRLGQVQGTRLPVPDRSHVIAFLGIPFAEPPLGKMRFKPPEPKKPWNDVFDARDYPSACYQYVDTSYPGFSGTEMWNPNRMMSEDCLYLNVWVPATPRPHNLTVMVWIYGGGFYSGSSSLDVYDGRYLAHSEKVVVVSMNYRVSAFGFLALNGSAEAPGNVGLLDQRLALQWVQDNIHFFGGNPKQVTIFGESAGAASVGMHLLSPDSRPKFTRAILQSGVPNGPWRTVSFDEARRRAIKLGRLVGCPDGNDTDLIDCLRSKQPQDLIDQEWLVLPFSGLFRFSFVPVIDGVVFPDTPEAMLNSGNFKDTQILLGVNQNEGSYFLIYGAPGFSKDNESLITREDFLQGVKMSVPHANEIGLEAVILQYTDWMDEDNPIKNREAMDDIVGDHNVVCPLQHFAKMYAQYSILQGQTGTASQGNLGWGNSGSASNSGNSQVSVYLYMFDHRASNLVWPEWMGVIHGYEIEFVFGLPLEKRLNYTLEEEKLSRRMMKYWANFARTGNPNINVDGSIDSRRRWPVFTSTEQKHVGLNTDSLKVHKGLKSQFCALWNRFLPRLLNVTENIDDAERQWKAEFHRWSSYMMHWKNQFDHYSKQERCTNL

Series [2] deals with MDA-MB-468 cells. In words: SRB assay, MDA-MB-468 cells. The following applies: Homo sapiens, MDA-MB-468, 72 h, read-out: IC50 MDA-468. In kind it is cell-based, human. As for the experimental part:
(§1) Two human breast cancer cell lines, MDA-MB-231 (HTB-26) and MDA-MB-468 (HTB-132), human cervical cancer cell line HeLa (CCL-2), and MRC-5 (CCL-171) fibroblasts were purchased from the American Type Culture Collection (ATCC, Manassas, VA, USA). All cell lines were cultured in Dulbecco’s Modified Eagle’s Medium (DMEM) with 4500 mg/L glucose and L-glutamine (Capricorn Scientific, Ebsdorfergrund, Germany), supplemented with 10% foetal bovine serum (PAN-Biotech, Aidenbach, Germany), 10,000 U/mL penicillin, and 10 mg/mL streptomycin solution (Capricorn Scientific) under standard conditions at 37 °C in a humidified 5% CO2 atmosphere (ESCO, Lifesciences Group, Singapore).
(§2) Cells were seeded on a 96-well plate (Thermo Fisher Scientific, Waltham, MA, USA) at 2 × 10^3 cells per well in DMEM medium. For the analysis of the concentration- and time-dependent effect of the analysed compounds, cell monolayers were treated 24 h after seeding with concentrations 1 × 10^−6, 1 × 10^−5, and 1 × 10^−4 M for 24, 48, or 72 h. Cell viability was detected using sulforhodamine B (SRB) assay, based on the staining of cellular proteins. The assay was performed according to the procedure described by Skehan et al.. The cells were fixed with 10% trichloroacetic acid (TCA, CARLO ERBA Reagents GmbH, Emmendingen, Germany) for 1 h at 4 °C, washed with water, and stained for 15 min with 0.4% SRB (Sigma-Aldrich Chemie GmbH, Steinheim, Germany) in 1% acetic acid. The unbound SRB dye was rinsed with 1% acetic acid, while the protein-bound dye was extracted with a 10 mM Tris base (Sigma-Aldrich). The absorbance was measured at 550 nm with a reference wavelength of 690 nm in a microplate reader (Wallac, VICTOR2 1420 Multilabel counter, PerkinElmer, Turku, Finland). The results were expressed as a percentage of the control, where the cell growth of the control is set to 100%. IC50, defined as the concentration that caused a 50% loss of cell growth, was calculated by non-linear regression analysis with the ED50plus v1.0 software. The selectivity index (SI) was determined according to the following formula:(2) SI=IC50 for fibroblast cell line/IC50 for tumour cell line
(§3) The assay was performed two times in 4 replicates for every experimental group. The statistical significance of differences between treated and untreated cells was estimated by the independent Student’s t-test, with the level of significance set at p < 0.05.
On the technique in general: In SRB staining, fixed cells bind dye roughly in proportion to their protein.

A short description of series [3]: DPPH radical scavenging assay. To be noted: for IC50: 30 min incubation, 25 °C; for antioxidative ability (DPPH): 0.01, 0.1 and 1 mM, 30 min. As for the experimental part:
DPPH (2,2-diphenyl-1-picrylhydrazyl) radical scavenging assay was used to assess free-radical scavenging activity of synthesized compounds. Initially, 1 × 10^−4 M working solution of DPPH was prepared, and 350 µL was added to 350 µL of the solution of each compound. The final concentrations of the compounds (Q, 2a, and 2b) in the samples were 1 × 10^−3 M, 1 × 10^−4 M, and 1 × 10^−5 M. The control included ethanol only and DPPH–ethanol solution without compounds. The mixtures were incubated at 25 °C in the dark for 30 min. After incubation, the absorbance of the samples at 517 nm was measured in duplicate by using a UV/Vis spectrophotometer (Lambda 35, Perkin Elmer, Waltham, MA, USA). The DPPH radical scavenging ability was calculated using the following equation:(1) Antioxidative activity(%)=Acontrol−Asample/Acontrol×100% where Asample and Acontrol represent the absorbance at 517 nm of the sample and control, respectively. All samples were analysed in duplicate.

Series [4] deals with HeLa cells. In words: SRB assay, HeLa cells. The class given is cell-based. The following applies: Homo sapiens, HeLa, 72 h, read-out: IC50 HeLa. As for the experimental part:
(§4) All cell lines were cultured in Dulbecco’s Modified Eagle’s Medium (DMEM) with 4500 mg/L glucose and L-glutamine (Capricorn Scientific, Ebsdorfergrund, Germany), supplemented with 10% foetal bovine serum (PAN-Biotech, Aidenbach, Germany), 10,000 U/mL penicillin, and 10 mg/mL streptomycin solution (Capricorn Scientific) under standard conditions at 37 °C in a humidified 5% CO2 atmosphere (ESCO, Lifesciences Group, Singapore).
as §2, with “The absorbance was measured at 550 nm with a reference wavelength of 690 nm in a microplate reader (Wallac, VICTOR2 1420 Multilabel counter, PerkinElmer, Turku, Finland).” left out, “IC50, defined as the concentration that caused a 50% loss of cell growth, was calculated by non-linear regression analysis with the ED50plus v1.0 software.” left out
as §3

For series [5], the system named is MDA-MB-231 cells. The series can be described thus: SRB assay, MDA-MB-231 cells. The class given is cell-based. To be noted: Homo sapiens, MDA-MB-231, 72 h, read-out: IC50 MDA-231. As for the experimental part:
as §4
as §2, with “The absorbance was measured at 550 nm with a reference wavelength of 690 nm in a microplate reader (Wallac, VICTOR2 1420 Multilabel counter, PerkinElmer, Turku, Finland).” left out, “IC50, defined as the concentration that caused a 50% loss of cell growth, was calculated by non-linear regression analysis with the ED50plus v1.0 software.” left out
as §3

The target in series [6] is eqBuChE (Equus caballus, UniProt P81908). The series can be described thus: BuChE inhibition (Ellman's procedure). The class given is biochemical. The following applies: for inhibition at 100 µM: read-out: Percentage Inhibition BuChE. As for the experimental part: The abilities of compounds to inhibit AChE and BuChE activity were determined following Ellman’s procedure, with AChI and BuChI as the enzyme substrate, respectively, and DTNB as a chromogenic reagent. AChE’s and BuChE’s working solutions were prepared at 20 mM TRIS and deionized water, respectively. AChI and BuChI solutions were prepared in deionized water. A 0.01 M DTNB solution was prepared with 0.1 M phosphate buffer (pH 7) containing 0.15% (w/v) sodium bicarbonate. Stock solutions (10 mM) of investigated compounds were prepared daily by dissolving solid compounds in DMSO. The reaction mixture containing phosphate buffer, DTNB, enzyme, and compound was preincubated 30 min at 37 °C. After the preincubation time, the enzyme reaction was initiated by adding appropriate substrate and left to incubate for 6 min. After incubation, 0.1 M SDS was added to stop the reaction. Absorbance measurements were performed using a UV/Vis spectrophotometer (Lambda 35, Perkin Elmer), measuring absorbance at 412 nm. A blank assay, containing all components except the enzyme, was used to account for non-enzyme reactions. The control solution contained all components except the inhibitor. All experiments were conducted in triplicate, and the results are expressed as the mean percentage enzyme activity compared to the control value. IC50 values were determined graphically using Origin 9 Microsoft Windows.
Sequence of eqBuChE (P81908 whole entry): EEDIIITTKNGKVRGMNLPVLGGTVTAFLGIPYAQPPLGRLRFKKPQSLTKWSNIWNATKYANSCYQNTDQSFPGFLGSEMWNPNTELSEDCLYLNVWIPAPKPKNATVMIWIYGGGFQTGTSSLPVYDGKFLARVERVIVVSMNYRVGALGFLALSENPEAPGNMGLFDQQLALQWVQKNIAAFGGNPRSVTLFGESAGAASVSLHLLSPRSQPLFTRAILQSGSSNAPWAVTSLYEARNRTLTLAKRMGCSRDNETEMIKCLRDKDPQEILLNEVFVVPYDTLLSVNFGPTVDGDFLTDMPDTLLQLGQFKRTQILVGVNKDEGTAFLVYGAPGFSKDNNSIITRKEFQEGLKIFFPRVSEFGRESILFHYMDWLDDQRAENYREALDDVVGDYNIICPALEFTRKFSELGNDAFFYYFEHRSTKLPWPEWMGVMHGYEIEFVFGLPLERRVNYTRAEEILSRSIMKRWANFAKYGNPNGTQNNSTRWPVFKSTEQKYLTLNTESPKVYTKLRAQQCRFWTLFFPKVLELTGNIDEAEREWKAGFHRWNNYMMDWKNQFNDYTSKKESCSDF
(DTNB colorimetry detects thiols as they appear.)

Series [7] addresses Na^+, K^+-ATPase. The following applies: cited from earlier work.
Series [8] has as its system MRC-5 cells. The series can be described thus: SRB assay, MRC-5 cells. The class given is cell-based. The following applies: Homo sapiens, MRC5, 72 h, read-out: IC50 MRC. As for the experimental part:
as §1
Cells were seeded on a 96-well plate (Thermo Fisher Scientific, Waltham, MA, USA) at 2 × 10^3 cells per well in DMEM medium. For the analysis of the concentration- and time-dependent effect of the analysed compounds, cell monolayers were treated 24 h after seeding with concentrations 1 × 10^−6, 1 × 10^−5, and 1 × 10^−4 M for 24, 48, or 72 h. Cell viability was detected using sulforhodamine B (SRB) assay, based on the staining of cellular proteins. The assay was performed according to the procedure described by Skehan et al.. The cells were fixed with 10% trichloroacetic acid (TCA, CARLO ERBA Reagents GmbH, Emmendingen, Germany) for 1 h at 4 °C, washed with water, and stained for 15 min with 0.4% SRB (Sigma-Aldrich Chemie GmbH, Steinheim, Germany) in 1% acetic acid. The unbound SRB dye was rinsed with 1% acetic acid, while the protein-bound dye was extracted with a 10 mM Tris base (Sigma-Aldrich). The absorbance was measured at 550 nm with a reference wavelength of 690 nm in a microplate reader (Wallac, VICTOR2 1420 Multilabel counter, PerkinElmer, Turku, Finland). The results were expressed as a percentage of the control, where the cell growth of the control is set to 100%. […] The selectivity index (SI) was determined according to the following formula:(2) SI=IC50 for fibroblast cell line/IC50 for tumour cell line […]

The nature of series [9]: physchem. The class given is physicochemical. The following applies: shake flask, n-octanol/water, 25 °C, 1 × 10^−4 M; read-out: logP, experimentally obtained. As for the experimental part:
To measure the lipophilicity (expressed as the partition coefficient) of the synthesized compounds and their constituents, using a “shake-flask” method, a two-phase system composed of n-octanol and deionized water was used. The stock solutions of the compounds were diluted with water to the concentration of 1 × 10^−4 M, and this solution was used for further investigation. […] The concentration of the compounds was calculated from their extinction coefficient at 260 nm that was previously determined.

For `O=c1c(O)c(-c2ccc(O)c(O)c2)oc2cc(O)cc(O)c12` [Quercetin, reference compound], the inhibition at 100 µM in series [1] is 58%; in [6], 72%. Moreover, the 50% inhibitory concentration (IC50) in series [2] is 65.9 ± 3.3 µM; in series [3], 19.3 µM; in series [4], 15.1 ± 2.67 µM; in series [5], 76.6 ± 3.8 µM; in series [6], 22.1 µM; in series [7] (literature value ref 36), 0.0463 mM. Besides, in series [8], the IC50 was 10.4 ± 0.52 µM.
On to `c1ccc2c(c1)CCNC2` [Compound 1a, 1,2,3,4-tetrahydroisoquinoline, reference compound], for which the inhibition at 100 µM in series [1] and in [6] was 2% each time. The logP at 30 min in [9] was found to be 1.4. Moreover, the “antioxidative ability (DPPH)” value in series [3] is “did not show antioxidative ability”. Further, the half-inhibitory concentration (IC50) in series [7] (literature value ref 35) was 25 mM.
In the case of `O=C1O[C@H]([C@@H](O)CO)C(O)=C1O` [Ascorbic acid], the IC50 in series [3] came out at 0.62 µM.
Take `COc1cc2c(cc1OC)CNCC2` [Compound 1b, 6,7-dimethoxy-1,2,3,4-tetrahydroisoquinoline, reference compound]: the inhibition at 100 µM in series [1] is 14.1%; in series [6] it was 17.7%. Further, the logP at 30 min in series [9] was 1.14. The “antioxidative ability (DPPH)” value in series [3] was “did not show antioxidative ability”.
